How the values were obtained:
[1] = test system: vaccinia virus
[2] = test system: herpes simplex virus; assay type: cell-based

Row | SMILES | % Effectiveness [1] | Effective [1] | Effective [uM] [1] | inhibition of vaccinia virus infection (in words) [1] | state of the cells [1] | spread of virus over time [1] | reversal of the antiviral effect of anisomycin [2]
1 | C[C@]12CC[C@@H]3c4ccc(O)cc4CC[C@H]3[C@@H]1CC[C@@H]2O [17-B Estradiol, 17-B-Estradiol] | 50% | ✓ | 100 µM | inhibited infection with vaccinia virus |  |  | 
2 | COc1ccc(C[C@@H]2NC[C@@H](O)[C@@H]2OC(C)=O)cc1 [ANISOMYCIN, [(2S,3R,4R)-4-hydroxy-2-[(4-methoxyphenyl)methyl]pyrrolidin-3-yl]acetate] |  |  |  |  | the cells were healthy |  | 
3 | CC(C)(c1ccc(OCC2CO2)cc1)c1ccc(OCC2CO2)cc1 (stereo not drawn) [BADGE] | 75% | ✓ | 50 to 100 µM | inhibited infection with vaccinia virus |  |  | 
4 | C[C@]12CC[C@H](O)CC1=CC[C@@H]1[C@@H]2CC[C@]2(C)C(=O)CC[C@@H]12 [DHEA] | 99% | ✓ | 30 µM | inhibited infection with vaccinia virus |  | the virus usually starts to spread after day 2 | 
5 | N#CC(=C(/N)Sc1ccccc1N)/C(C#N)=C(\N)Sc1ccccc1N [U0126] |  |  |  |  |  |  | this effect was reversed

Reference: patent US20140220690A1, “MAMMALIAN GENES INVOLVED IN INFECTION” (priority 2009, published 2014)
